For series [1], the system named is MRC5. Nature of the series: Cytotoxicity against human MRC5 cells by MTT assay. Format: cell-based. (In general: Tetrazolium dyes change colour on reduction, which living cells bring about.)
A short description of series [2]: Selectivity index, ratio of IC50 for human MRC5 cells to IC50 for chloroquine-resistant Plasmodium falciparum K1. In kind it is toxicity, cell-based. Conditions: read-out: Ratio IC50.
A short description of series [3]: Selectivity index, ratio of IC50 for human MRC5 cells to IC50 for […]. The settings on record: read-out: Ratio IC50. Format: toxicity, cell-based.
The nature of series [4]: Selectivity index, ratio of IC50 for human MRC5 cells to IC50 for chloroquine/mefloquine-resistant Plasmodium falciparum SKF58. Format: toxicity, cell-based. Conditions: read-out: Ratio IC50.
The nature of series [5]: Selectivity index, ratio of IC50 for human MRC5 cells to IC50 for chloroquine/mefloquine-resistant Plasmodium falciparum SRIV35. The settings on record: read-out: Ratio IC50. Format: toxicity, cell-based.
Series [6] concerns MRC5. The series is described as follows: Cytotoxicity against human MRC5 cells at 144667 nM by MTT assay relative to control. Format: cell-based. Conditions: mrc5, 144.667 µM.
In another series the test system is HepG2. Nature of the series: Cytotoxicity against human HepG2 cells by MTT assay. Format: functional, cell-based.
Series [7] can be described thus: Cytotoxicity against human HuCCa1 cells by MTT assay. Format: functional, cell-based. The settings on record: HuCC-A1.
Series [8] can be described thus: Cytotoxicity against human MOLT3 cells by XTT assay. In kind it is functional, cell-based. The settings on record: MOLT-3.
A further series has as its system A549. The series is described as follows: Cytotoxicity against human A549 cells by MTT assay. Format: functional, cell-based.
A short description of series [9]: Selectivity index, ratio of IC50 for human MRC5 cells to IC50 for human HuCCa1 cells. In kind it is functional.
Series [10] concerns Plasmodium falciparum. The series is described as follows: microbe, parasite or virus in culture. Conditions: K1.
Description: Antiplasmodial activity against chloroquine-resistant Plasmodium falciparum K1
Series [11] has as its system Plasmodium falciparum. The series is described as follows: microbe, parasite or virus in culture. The settings on record: 3D7.
Description: Antiplasmodial activity against chloroquine-sensitive Plasmodium falciparum 3D7
For series [12], the system named is Plasmodium falciparum. Nature of the series: microbe, parasite or virus in culture. Conditions: SKF58.
Series [13] has as its system Plasmodium falciparum. The series is described as follows: microbe, parasite or virus in culture. The settings on record: SRIV35.
The subject of series [14] is MRC5. Nature of the series: Cytotoxicity against human MRC5 cells at 72014 nM by MTT assay relative to control. In kind it is cell-based. The settings on record: mrc5, 72.014 µM.
Series [15] has as its system MRC5. The series is described as follows: Cytotoxicity against human MRC5 cells at […] uM by MTT assay relative to control. In kind it is cell-based. The settings on record: mrc5, 91.99 µM.
In series [16] the test system is MRC5. The series is described as follows: Cytotoxicity against human MRC5 cells at 131866 nM by MTT assay relative to control. In kind it is cell-based. The settings on record: mrc5, 131.866 µM.
For series [17], the system named is MRC5. The series is described as follows: Cytotoxicity against human MRC5 cells at 137509 nM by MTT assay relative to control. Format: cell-based. The settings on record: mrc5, 137.509 µM.

The values below come from ChEMBL document CHEMBL3414562, “Synthesis of isocryptolepine analogues and their structure-activity relationship studies as antiplasmodial and antiproliferative agents” (Eur J Med Chem, 2015).

Some results are limits rather than exact numbers.

For the molecule `Cn1cc2c3cc(Br)ccc3nc-2c2cc(Cl)ccc21`, the IC50 (commonly the concentration that inhibits the measured activity by half) was over 145000 nM in the series with MRC5 [1]; 4830 nM with HepG2; 30800 nM in [7]; 750 nM in series [8]; 7030 nM in the series with A549; 232 nM with Plasmodium falciparum [10]. Also, the IC50 amounted to 182 nM with Plasmodium falciparum [11], 162 nM in the series with Plasmodium falciparum [12] and 171 nM in the series with Plasmodium falciparum [13]. Further, the selectivity ratio is over 623 in [2], over 796 in series [3], over 893 in [4] and over 845 in [5]. The same molecule came in with an Activity with MRC5 [6] of 40.45%. Further, in series [9], the “Ratio IC50” value was over 4.7.

Turning to `Cn1cc2c3cc(Br)ccc3nc-2c2ccc(F)c(F)c21`, the IC50 in the series on MRC5 [1] was over 72000 nM; in series [7], 42700 nM; in [8], 17400 nM; in the series with A549, 25000 nM; in the series with Plasmodium falciparum [10], 1350 nM; with Plasmodium falciparum [11], 290 nM. For the same molecule, the IC50 is 9860 nM with Plasmodium falciparum [12] and over 2000 nM with Plasmodium falciparum [13]. The selectivity ratio in series [2] is over 53.2; in [3], over 248; in series [4] it was over 7.3. In the series on MRC5 [14], this molecule came in with an Activity of 32.6%. Further, in series [9], the “Ratio IC50” value is reported as over 1.68.

Turning to `COc1cccc2c1C(=O)c1c(O)c3c(c(O)c1C2=O)C[C@@](O)(C(=O)CO)C[C@@H]3O[C@H]1C[C@H](N)[C@H](O)[C@H](C)O1` [DOXORUBICIN], the IC50 in the series on MRC5 [1] was over 92000 nM; in the series with HepG2, 400 nM; in series [7], 2390 nM. The Activity in the series on MRC5 [15] is 37.13%.

In the case of `Cn1cc2c3cc(Br)ccc3nc-2c2cc(C(F)(F)F)ccc21`, the IC50 with MRC5 [1] was over 132000 nM; with HepG2, 75600 nM; in series [7], 7440 nM; in [8] it was 35000 nM; in the series with A549 it was 105000 nM; in the series on Plasmodium falciparum [10], 1370 nM. In addition, the IC50 was 579 nM in the series with Plasmodium falciparum [11], 1220 nM with Plasmodium falciparum [12] and 929 nM in the series with Plasmodium falciparum [13]. Also, the selectivity ratio in [2] was over 96.4; in series [3], over 228; in [4], over 108; in series [5] it was over 142. Moreover, the Activity in the series on MRC5 [16] turned out to be 35.85%. The “Ratio IC50” value in series [9] is reported as over 17.72.

Regarding `Cn1cc2c3cc(Br)ccc3nc-2c2cc(Cl)cc(F)c21`, the IC50 in the series on MRC5 [1] was over 138000 nM; in the series on HepG2 it was 8760 nM; in [7], 11400 nM; in [8] it was 55700 nM; in the series with Plasmodium falciparum [10] it was 1360 nM; in the series with Plasmodium falciparum [11] it was 758 nM. Further, the IC50 with Plasmodium falciparum [12] and in the series on Plasmodium falciparum [13] was 1400 nM in each case. For the same molecule, the selectivity ratio was over 101 in series [2], over 181 in series [3], over 97.9 in [4] and over 98.2 in series [5]. This molecule gave an Activity in the series on MRC5 [17] of 34%. The “Ratio IC50” value in [9] is on record as over 12.07.

As for `Cc1cccc2c3nc4ccccc4c-3cn(C)c12`, the IC50 was 39500 nM in the series on MRC5 [1]; 2600 nM with HepG2; 16600 nM in series [7]; 2920 nM in [8]; 11100 nM in the series on A549; 1740 nM in the series with Plasmodium falciparum [10]. Also, the IC50 in the series on Plasmodium falciparum [11], with Plasmodium falciparum [12] and in the series on Plasmodium falciparum [13] was 1570 nM throughout. Besides, the selectivity ratio in series [2] was 22.2; in series [3], 24.6; in [4], 24.6; in series [5] it was 24.6. For the same molecule, the “Ratio IC50” value in [9] amounted to 2.33.
